Results: paper PMC6129362, “MT1-MMP as a PET Imaging Biomarker for Pancreas Cancer Management” (Contrast Media & Molecular Imaging, 2018)
Where a SMILES comes first, the peptide text is derived from it. The star is where a group is joined. DOTA = O=C(O)CN1CCN(CC(=O)O)CCN(CC(=O)*)CCN(CC(=O)O)CC1

Assays:
[1] = PET/CT imaging in CAPAN-2-tumour-bearing mice; type: in vivo; details: female, athymic nude-Foxn1nu (nu/nu), mouse, iv, total radioactivity, CAPAN-2 xenograft mice, i.v., PET 90 min after injection, mean ± SD (n=33 for -1, n=17 for -2), read-out: Tumour uptake quantified by PET imaging
Description: For the cell line-derived model, 1 × 10^6 CAPAN-2 cells were injected subcutaneously into the flanks of female athymic nude-Foxn1nu (nu/nu) mice (Harlan Laboratories). Tumours were allowed to develop until palpable prior to PET imaging. Mice were sacrificed when the tumour mass reached a maximum size of 1500 mm^3 or tumour ulceration was observed, or mice were symptomatic from their tumours which included signs of lethargy, poor grooming, weight loss, and hunching.
PET imaging was performed with a small-animal Argus PET-CT scanner (SEDECAL, Madrid, Spain). PET studies (energy window 250–700 KeV and 30 min static acquisition) and CT studies (voltage 45 kV, current 150 μA, 8 shots, 360 projections, and standard resolution) were performed either at 90 min or at various time points after injection of ^68Ga-DOTA-AF7p or ^89Zr-DFO-LEM2/15, respectively, in mice anesthetized by inhalation of 2–2.5% isoflurane. PET image reconstruction was accomplished using a 2D-OSEM (ordered subset expectation maximization) algorithm (16 subsets and two iterations), with random and scatter correction. […] Tumour-to-blood and tumour-to-background ratios were calculated from %ID/g values in ROIs for the whole tumour, heart (a measure of the blood pool), and brain (for background measurements). Images were analysed with the image analysis software ITK-SNAP [26] […]

[2] = PET/CT imaging in heterotopic (subcutaneous) patient-derived xenograft mice; type: in vivo, mouse; details: female, athymic nude-Foxn1nu (nu/nu), mouse, total radioactivity, heterotopic PDX mice
Description: (§1) PDX models used in this work were established as described by Rubio-Viqueira et al. and Hidalgo et al. using four- to six-week-old female athymic nude-Foxn1nu (nu/nu) mice, purchased from Envigo (Barcelona, Spain). Animals were maintained at the Spanish National Cancer Research Centre (CNIO) Animal Facility (awarded with the AAALAC accreditation). Orthotopic tumours were monitored by ultrasonography, and those implanted into the flanks were allowed to grow to approximately 40 to 200 mm^3 prior to perform PET imaging studies.
(§2) PET imaging was performed with a small-animal Argus PET-CT scanner (SEDECAL, Madrid, Spain). PET studies (energy window 250–700 KeV and 30 min static acquisition) and CT studies (voltage 45 kV, current 150 μA, 8 shots, 360 projections, and standard resolution) were performed either at 90 min or at various time points after injection of ^68Ga-DOTA-AF7p or ^89Zr-DFO-LEM2/15, respectively, in mice anesthetized by inhalation of 2–2.5% isoflurane. PET image reconstruction was accomplished using a 2D-OSEM (ordered subset expectation maximization) algorithm (16 subsets and two iterations), with random and scatter correction. A calibration factor predetermined by scanning a cylindrical phantom containing a known activity of ^68Ga or ^89Zr was used to convert counts per pixel/sec to kBq/cm^3. Manually drawn regions of interest (ROIs) selected from PET images using CT anatomical guidelines were used to determine the mean radiotracer accumulation in units of %ID/g tissue (decay corrected to the time of injection) by dividing the obtained average tracer concentration (kBq/cm^3) in the region by the total ID (injected dose, expressed in kBq). Tumour-to-blood and tumour-to-background ratios were calculated from %ID/g values in ROIs for the whole tumour, heart (a measure of the blood pool), and brain (for background measurements). Images were analysed with the image analysis software ITK-SNAP [26] (http://www.itksnap.org).

[3] = system: subcutaneous PDAC patient-derived xenograft; assay: as above; type: in vivo, mouse; details: heterotopic PDX mice
Description: as §1, §2

## CC(C)C[C@H](NC(=O)[C@H](Cc1ccccc1)NC(=O)[C@@H](NC(=O)[C@H](CCCCN)NC(=O)[C@@H](NC(=O)[C@H](CC(N)=O)NC(=O)[C@H](Cc1c[nH]cn1)NC(=O)[C@H](CC(C)C)NC(=O)[C@H](Cc1c[nH]cn1)NC(=O)[C@H](CCCCN)NC(=O)[C@H](Cc1c[nH]c2ccccc12)NC(=O)[C@H](Cc1c[nH]cn1)NC(=O)CN1CCN(CC(=O)O)CCN(CC(=O)O)CCN(CC(=O)O)CC1)[C@@H](C)O)[C@@H](C)O)C(=O)O [^68Ga-DOTA-AF7p-1, metal not drawn] ({DOTA}-HWKHLHNTKTFL-OH)
[1]
  tissue uptake at 1.5 h: 0.171 ± 0.095 %ID/g
[2]; kidneys, PET, n=17, read-out: Mean accumulation in kidneys
  tissue uptake at 1.5 h: 4.03 ± 1.73 %ID/g
[2]; liver, PET, n=16, read-out: Mean accumulation in liver
  tissue uptake at 1.5 h: 0.8 ± 0.6 %ID/g
[2]; tumour, PET 90 min after injection, start of the PET study, n=8, read-out: Tumour uptake quantified by PET imaging
  tissue uptake at 1.5 h: 0.23 ± 0.085 %ID/g
[2]; tumour, PET 90 min after injection, study day 5, n=8, read-out: Tumour uptake quantified by PET imaging
  tissue uptake at 1.5 h: 0.227 ± 0.142 %ID/g
[2]; tumour, PET 90 min after injection, study day 8, n=6, read-out: Tumour uptake quantified by PET imaging
  tissue uptake at 1.5 h: 0.26 ± 0.047 %ID/g
[2]; tumour, PET 90 min after injection, study day 14, n=10, read-out: Tumour uptake quantified by PET imaging
  tissue uptake at 1.5 h: 0.185 ± 0.082 %ID/g
[3]
  Route of excretion (signals in kidneys and bladder on PET): mainly excreted through the renal route

## CC(C)C[C@H](NC(=O)[C@H](Cc1ccccc1)NC(=O)[C@@H](NC(=O)[C@H](CCCCN)NC(=O)[C@@H](NC(=O)[C@H](CC(N)=O)NC(=O)[C@H](Cc1c[nH]cn1)NC(=O)[C@H](CC(C)C)NC(=O)[C@H](Cc1c[nH]cn1)NC(=O)[C@H](CCCCNC(=O)CN1CCN(CC(=O)O)CCN(CC(=O)O)CCN(CC(=O)O)CC1)NC(=O)[C@H](Cc1c[nH]c2ccccc12)NC(=O)[C@@H](N)Cc1c[nH]cn1)[C@@H](C)O)[C@@H](C)O)C(=O)O [^68Ga-DOTA-AF7p-2, metal not drawn] (H-HWK(DOTA)HLHNTKTFL-OH)
[1]
  tissue uptake at 1.5 h: 0.216 ± 0.095 %ID/g
